The values that follow come from PMC8958510 (Journal of Medicinal Chemistry, 2022).

As usually defined, the microsomal CLint is the capacity of the preparation to metabolise the compound, expressed as a volume cleared per time. The low end stands for slow turnover, the high end for rapid turnover. The fraction remaining is what is left of the initial amount, in per cent. The IC50 is the concentration that gives 50% inhibition. What is called Papp is a coefficient for how fast a substance crosses the barrier. Read a high Papp as ready permeation.

Series [1] is described as follows: Microsomal stability, mouse liver microsomes. It is filed as in vitro ADME. On the technique in general: Liver microsomes are vesicles of endoplasmic reticulum, rich in cytochrome P450 enzymes.
Experimental: Microsomal stability screen. The microsomal stability of the target compounds was
determined at the Innopharma Drug Screening and Pharmacogenomics Platform (Santiago de
Compostela, Spain). The human, rat and mice pooled microsomes, with a protein content of 20 mg mL‒1, were purchased from Tebu-Xenotech. The compounds were incubated in a 96-well microplate at 37 °C with the microsomes in 50 mM phosphate buffer (pH = 7.4) containing as cofactors 30 mM MgCl2, 10 mM NADP, 100 mM glucose-6-phosphate and 40
Samples (75 µL) were taken from each well at 0, 10, 20, 40 and 60 min and transferred to a microplate. 4 °C Acetonitrile (75 µL) and internal standard (rolipram) were then added for inactivating the microsomes, and water with 0.5% formic acid (30 µL) was subsequently added for improving the chromatographic conditions, keeping the mixtures at 4 °C. The plate was centrifuged at 46,000 g for 30 min at 15 °C and supernatants were taken and analyzed in a UPLC-MS/MS system (UPLC QSM Waters Acquity) using reverse phase Acquity UPLC® HSST3 1.7 μm (2.1 mm × 50 mm, Waters) as the stationary phase, 0.1% formic acid in water (A) / 0.1% formic acid in acetonitrile (B) as the mobile phase, a flow of 0.8 mL min‒1, and the
The metabolic stability of the compounds was calculated from the logarithm of the remaining compound at each of the time points studied.
In another series the target is T1, recombinant human AChE (Homo sapiens, UniProt P22303).
T1 construct: purchased Sigma-Aldrich, Milan, Italy
T1 sequence (P22303 32-614): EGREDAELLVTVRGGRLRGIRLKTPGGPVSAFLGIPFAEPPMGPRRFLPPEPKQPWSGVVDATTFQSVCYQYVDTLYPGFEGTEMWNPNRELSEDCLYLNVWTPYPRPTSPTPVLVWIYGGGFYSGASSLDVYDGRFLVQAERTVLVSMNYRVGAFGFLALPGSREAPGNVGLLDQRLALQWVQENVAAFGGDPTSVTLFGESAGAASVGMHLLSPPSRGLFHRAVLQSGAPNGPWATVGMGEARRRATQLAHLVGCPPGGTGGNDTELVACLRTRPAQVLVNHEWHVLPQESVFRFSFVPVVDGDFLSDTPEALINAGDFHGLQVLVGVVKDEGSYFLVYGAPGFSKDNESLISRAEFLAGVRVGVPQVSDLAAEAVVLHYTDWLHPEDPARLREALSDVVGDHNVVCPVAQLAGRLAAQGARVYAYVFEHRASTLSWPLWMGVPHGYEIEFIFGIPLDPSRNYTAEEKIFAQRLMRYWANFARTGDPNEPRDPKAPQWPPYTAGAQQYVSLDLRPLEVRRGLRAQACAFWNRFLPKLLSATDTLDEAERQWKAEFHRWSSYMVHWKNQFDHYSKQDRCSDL
Type of series: biochemical. To be noted: recombinant human AChE; mean ± SEM; read-out: hAChE IC50.

In the next series the target is T2, human serum BChE (Homo sapiens, UniProt P06276).
T2 construct: human serum BChE (Sigma-Aldrich, Milan, Italy) was assessed by Ellman’s method; purchased Sigma-Aldrich, Milan, Italy; host or cells: human serum
T2 sequence (P06276 29-602): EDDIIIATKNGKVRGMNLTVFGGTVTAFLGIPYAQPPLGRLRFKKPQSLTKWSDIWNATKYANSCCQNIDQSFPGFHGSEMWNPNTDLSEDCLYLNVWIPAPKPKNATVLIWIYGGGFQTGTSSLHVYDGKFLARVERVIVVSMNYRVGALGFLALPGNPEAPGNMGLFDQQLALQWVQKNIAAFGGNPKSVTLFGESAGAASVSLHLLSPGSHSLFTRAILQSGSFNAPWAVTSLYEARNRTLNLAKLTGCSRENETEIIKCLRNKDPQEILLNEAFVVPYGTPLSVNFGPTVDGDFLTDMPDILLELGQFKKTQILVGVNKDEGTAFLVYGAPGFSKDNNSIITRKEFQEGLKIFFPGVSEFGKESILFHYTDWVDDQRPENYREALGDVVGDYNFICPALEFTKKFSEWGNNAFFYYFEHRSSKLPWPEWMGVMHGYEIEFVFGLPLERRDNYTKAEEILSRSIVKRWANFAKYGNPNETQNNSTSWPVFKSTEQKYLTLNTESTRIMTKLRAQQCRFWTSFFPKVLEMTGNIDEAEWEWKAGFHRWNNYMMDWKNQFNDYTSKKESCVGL
Type of series: biochemical.

The subject of series [2] is hippocampus of SAMP8 mice. Put plainly: Hippocampal protein levels by western blot in SAMP8 mice. Type of series: in vivo, mouse. To be noted: 2 mg kg^–1 day^–1 oral, 4 weeks, vs control. The source says: In Vivo Proof-of-Concept of the Dual sEH / AChE Inhibitor […] in SAMP8 Mice Animals and treatment. The senescence-accelerated mouse-prone 8 (SAMP8) is an accelerated aging model established through phenotypic selection from AKR/J mice by […]
abnormal APP and β-amyloid processing and tau pathology, among others. Likewise, SAMP8 […]
and oxidative stress markers are present at early ages and during adultness.15 In this work, 5-month-old male SAMP8 mice were used to perform behavioral and molecular analyses.
Animals were randomly divided into SAMP8 control (n=8) and SAMP8 treated with 12c […]
(n=8, 2 mg kg‒1 day‒1). The animals had free access to food and water and were kept under standard temperature conditions (22 ± 2 °C) and 12-h/12-h light/dark cycles (300 lux/0 lux).
Compound 12c was dissolved in 1.8% (2-hydroxypropyl)-β-cyclodextrin (Sigma-Aldrich, St.
Louis, MO) and administered through drinking water for 4 weeks (Figure S6 of the Supporting Information). Control groups received water plus 1.8% (2-hydroxypropyl)-β-cyclodextrin during the treatment period. After 4 weeks of treatment, behavioral and cognitive tests were performed to study the effects of treatment on working memory. Drug administration was continued until euthanasia by cervical dislocation, three days after the cognitive tests were completed. The brains were immediately removed from the skulls and the hippocampi were dissected, frozen and maintained at ‒80 °C.
Weight and water consumption were controlled each week, and compound concentration was adjusted accordingly to reach the optimal dose. Mice were treated according to European Community Council Directive 86/609/EEC and were approved by the Institutional Animal Care and Use Committee of the University of Barcelona (670/14/8102) and by Generalitat de Catalunya, Spain (10291). All studies and procedures for the behavioral tests, brain dissection and extractions followed the ARRIVE. Every effort was made to minimize animal suffering and to reduce the number of animals. […]
Exploration was defined as sniffing or touching the objects with the nose and/or forepaws.
The discrimination index (DI) was calculated as (TN‒TO)/(TN+TO). To avoid object preference biases, objects were alternated. 70% EtOH was used to clean the arms and objects after each trial for the elimination of olfactory cues.
Molecular analyses. Immunodetection experiments by western blot. The hippocampal tissue from each animal was homogenized in lysis buffer (Tris HCl pH 7.4 mM, NaCl 150 mM, EDTA 5 mM and 1X-Triton X-100) containing phosphatase and protease inhibitors (Cocktail II, Sigma-Aldrich, St. Louis, MO, USA) to obtain total protein homogenates. The Bradford technique was used to determine total protein concentration. Aliquots of 15 μg of total hippocampal protein were used and separated by sodium dodecyl sulfate-polyacrylamide gel […] (SDS-PAGE) (8‒20%) and transferred into polyvinylidene difluoride (PVDF) membranes (Merck-Millipore, Burlington, MA, USA) for 2 h. The membranes were blocked in 5% non-fat milk in TRIS-buffered saline (TBS) containing 0.1% Tween 20 (TBS-T, Sigma-Aldrich, St. Louis, MO, USA) for 1 h at room temperature, and then, overnight […]
membranes were washed with TBS-T 3 times for 5 min and incubated with secondary antibodies for 1 h at room temperature. Immunoreactive protein was viewed with a Chemiluminescence-based detection kit, following the manufacturer’s protocol (ECL Kit; Merck-Millipore), and digital images were acquired using a ChemiDoc XRS+ System (BioRad lab, Hercules, CA, USA). Semi-quantitative analyses were done using ImageLab Software (BioRad Lab), and results were expressed in Arbitrary Units (AU) considering control protein levels as 100%. Protein loading was routinely monitored by immunodetection of glyceraldehyde-3-phosphate dehydrogenase (GADPH).

A further series addresses T3, recombinant mouse AChE (Mus musculus, UniProt P21836).
T3 construct: purchased Bio-Techne, Milan, Italy
T3 sequence (P21836 32-614): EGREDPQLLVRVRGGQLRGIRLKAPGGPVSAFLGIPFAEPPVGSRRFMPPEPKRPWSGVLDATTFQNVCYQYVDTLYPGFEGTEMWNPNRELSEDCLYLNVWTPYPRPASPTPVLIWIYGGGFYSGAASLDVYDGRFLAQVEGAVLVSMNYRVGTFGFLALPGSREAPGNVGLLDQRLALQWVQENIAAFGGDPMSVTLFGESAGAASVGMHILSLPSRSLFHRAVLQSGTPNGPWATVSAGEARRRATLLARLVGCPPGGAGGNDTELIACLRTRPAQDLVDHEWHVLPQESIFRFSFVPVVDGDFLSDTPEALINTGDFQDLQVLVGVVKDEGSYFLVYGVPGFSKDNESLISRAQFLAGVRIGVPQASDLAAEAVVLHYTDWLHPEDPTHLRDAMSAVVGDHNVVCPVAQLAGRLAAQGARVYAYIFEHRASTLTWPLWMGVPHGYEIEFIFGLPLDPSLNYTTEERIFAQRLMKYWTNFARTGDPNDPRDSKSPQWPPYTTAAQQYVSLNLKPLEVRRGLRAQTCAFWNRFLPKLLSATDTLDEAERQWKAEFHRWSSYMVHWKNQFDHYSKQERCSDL
Put plainly: Mouse acetylcholinesterase inhibition, Ellman's method. Type of series: biochemical. For orientation: Ellman's reagent forms a yellow product with free thiols.

Series [3] can be described thus: PAMPA-BBB assay for brain permeability. On the technique in general: The PAMPA barrier holds no transporters, so it reflects passive diffusion.
Experimental: PAMPA-BBB assay for brain permeability. The brain permeability (Pe) of the target
compounds was assessed by an in vitro parallel artificial membrane permeability assay for
blood‒brain barrier penetration (PAMPA-BBB assay),12 which uses a lipid extract of porcine
brain membrane as a BBB model. The assay was validated by comparing experimental and
reported Pe values of a set of fourteen commercial drugs (Table S2 of the Supporting
On the basis of this equation and the limits established by Di et al. for BBB
independent experiments, each performed in triplicate, were carried out for each compound.

Experimental for human serum BChE: (§1) Human and mouse acetylcholinesterase and human butyrylcholinesterase inhibition
(§2) assay. The inhibitory activity of the target compounds toward recombinant human AChE
(§3) (Sigma-Aldrich, Milan, Italy), recombinant mouse AChE (Bio-Techne, Milan, Italy) and
(§4) human serum BChE (Sigma-Aldrich, Milan, Italy) was assessed by Ellman’s method,8 using
(§5) Stock solutions of the AChEs were prepared by
(§6) dissolving enzyme lyophilized powder (hAChE) or diluting the enzyme commercial solution
(§7) (mAChE) in 0.1 M potassium phosphate (pH 8.0) containing 0.1% Triton X-100, whereas the
(§8) stock solution of hBChE was prepared in 0.1% aq. gelatin and the stock solutions of the
(§9) compounds to be tested were made in MeOH (2-4 mM). The assay solution consisted of 0.02
(§10) unit mL‒1 of the enzyme, 340 M 5,5’-dithiobis(2-nitrobenzoic acid), and 550 M of the
(§11) substrate acetylthiocholine iodide (for AChE assay) or butyrylthiocholine iodide (for BChE
(§12) assay) in 0.1 M potassium phosphate (pH 8.0). Blank solutions containing all components
(§13) except the enzymes were prepared to account for the non-enzymatic hydrolysis of the
(§14) Prior the addition of the substrate, the assay solutions were incubated at 37 °C for 20 min.
(§15) After the addition of the substrate, cuvettes were rapidly transferred into a Jasco V-530
(§16) double beam spectrophotometer equipped with thermostated cuvette holders (37 °C), in order
(§17) for 240 s. For each tested compound, five increasing concentrations were assayed in order to
(§18) achieve inhibition percentages of 20‒80%. Each concentration was assayed in triplicate. IC50
(§19) values were calculated from the inhibition plot (% inhibition vs log[inhibitor]) and are
(§20) expressed as mean ± SEM. Each IC50 value is the average of at least two experiments, each
Experimental for recombinant human AChE: as §1, §2, §3, §4, §5, §6, §7, §8, §9, §10, §11, §12, §13, §14, §15, §16, §17, §18, §19, §20
Experimental for recombinant mouse AChE: as §1, §2, §3, §4, §5, §6, §7, §8, §9, §10, §11, §12, §13, §14, §15, §16, §17, §18, §19, §20

Take `O=C(Nc1ccc(OC(F)(F)F)cc1)NC1CCN(C(=O)CCCCNc2c3c(nc4cc(Cl)ccc24)CCCC3)CC1` [12c, 1-{1-{5-[(6-Chloro-1,2,3,4-tetrahydroacridin-9-yl)amino]pentanoyl}piperidin-4-yl}-3-[4-(trifluoromethoxy)phenyl]urea]: the “amount of compound, mouse liver microsomes” value in series [1] (after 10 min) came out at 38%. The “amount of compound, mouse liver microsomes” value in series [1] (after 20 min) is on record as 4%. Moreover, in series [1] (mouse, liver microsomes (pooled), pH 7.4, 37 °C), the microsomal CLint at 1 h, 0.05 µM came to 155 µL/min/mg. The half-life at 1 h, 0.05 µM in series [1] (mouse, liver microsomes (pooled), pH 7.4, 37 °C, read-out: t1/2, mouse microsomes) was determined as 4 min. The share remaining at 1 h, 0.05 µM in series [1] (mouse, liver microsomes (pooled), pH 7.4, after 1 h of incubation at 37 °C, read-out: % remaining compound, mouse microsomes) was determined as 2%. On recombinant human AChE, the IC50 is 12.9 ± 1.6 nM. Also, the “hBChE potency relative to 6-chlorotacrine” value at human serum BChE amounted to 3 fold. The 50% inhibitory concentration (IC50) at human serum BChE (human serum BChE, mean ± SEM, n.a. = not active, % inhibition <10% at 100 μM, read-out: hBChE IC50) is 179 ± 90 nM. Besides, in series [2], the “hippocampal levels of synaptophysin (SYN)” value was “significantly increased”, the “hippocampal protein levels of NFkβ” value was “reduced in mice treated with 12c relative to untreated mice but without reaching statistical significance”, the “hippocampal protein levels of sAPPα” value is listed as “significant increase” and the “hippocampal protein levels of sAPPβ” value is “tendency toward reduced levels”. In series [2], the “tau phosphorylation at Ser396” value is “significant site-specific reduction” and the “tau phosphorylation at Ser404” value is on record as “slightly decreased phosphorylation”. Also, on recombinant mouse AChE, the “mAChE potency relative to 6-chlorotacrine” value came out at 5 fold and the “potency toward mAChE relative to hAChE” value stood at 3 fold. Further, on recombinant mouse AChE (recombinant mouse AChE, mean ± SEM, read-out: mAChE IC50), the IC50 worked out at 4.12 ± 0.23 nM. In series [3] (PAMPA-BBB prediction), the BBB permeation class entry is “CNS+ (High permeation, CNS+: Pe > 5.2)”. This compound returned an apparent permeability (Papp) in series [3] (pig, PAMPA) of 8.4 ± 0.7 ×10⁻⁶ cm/s.
